Entries after “also recorded” stand apart in the source; their conditions may differ.

Type in all cases: in vivo, mouse
Data set [1] concerns ciliary body. The data set is described as follows: TUNEL staining after PDT in DBA/2J mice. To be noted: 1.0 mg/kg, 180 degrees; 1 day after PDT. As for the experimental part: (§1) Lectin labeling of vascular endothelial cells and TUNEL staining (to examine apoptotic cells) was performed 1 day after PDT in C57BL16 normal mice (n=2). In DBA/2J mice, only TUNEL staining was performed. PDT was performed to cover 180 degrees of the ciliary body at a dose of 4.0 mg/kg (C57BL/6) and 1.0 mg/kg (DBA/2J) verteporfin to compare the degree of staining between irradiated area and non-irradiated area. Non-operated fellow eyes (n=2) were used as controls. After sufficient anesthesia, the animals were perfused with 8 mL phosphate buffered saline (PBS) administered via a catheter in the left ventricle. After PBS perfusion, fluorescein-isothiocyanate (FITC)-coupled Concanavalin A lectin (20 μg/mL in PBS, pH 7.4, 5 mg/kg BW)(Vector Labs, Burlingame, Calif.) was then perfused to stain vascular endothelial cells. Four percent paraformaldehyde in 0.1 PBS (pH 7.4) was perfused following PBS perfusion to remove residual unbound lectin. Enucleated eyes were fixed in 4% paraformaldehyde in 0.1 PBS overnight and were immersed in graded sucrose in 0.1 PBS. The samples were embedded in optimal cutting temperature (OCT) compound (Tissue-Tek, Tokyo, Japan), and sectioned vertically at 10-μm. TUNEL staining was performed according to the manufacturer's protocol (Fluorescein In Situ Apoptosis Detection Kit; CHEMICON International, Temecula, Calif.) to detect retinal cell death induced by PDT. […]

A further data set has as its system DBA/2J mice. As to the kind of experiment: Ocular complications of ciliary body PDT in DBA/2J mice (preliminary and changed parameters).
The subject of data set [2] is ciliary body. As to the kind of experiment: Lectin labeling of vascular endothelial cells and TUNEL staining after PDT in C57BL/6 normal mice. The conditions noted are these: 4.0 mg/kg, 180 degrees; 1 day after PDT. As for the experimental part:
as §1

For data set [3], the system named is ciliary body. As to the kind of experiment: Histology (light and electron microscopy) of ciliary body after PDT in C57BL/6 normal mice. Here is the method: (§2) Eyes were enucleated at 6 hours (only DBA/2J), at 1 and 7 days after treatment, and at the end of IOP follow up (8 weeks after treatment)(n=2 in each group at each time point) and processed for light and transmission electron microscopic examination. The eyes were bisected behind the limbus, placed in modified Karnovsky's fixative at 4° C. overnight, and then transferred to 0.1 M cacodylate buffer at pH 7.4. Ciliary body specimens were observed by stereomicroscopy at 1 day after PDT for normal mice in the 4.0 mg/kg dose-treated group. Tissues were postfixed in aqueous 2% osmium tetroxide, stained en bloc with Uranyl Acetate, dehydrated in graded ethanols, and embedded in Epon. One-micrometer-thick sections were stained with 0.5% toluidine blue in borate buffer for light microscopy and examined using a photomicroscope (Leica Microsystems, Wetzlar, Germany). Thin sections were stained with aqueous uranyl acetate, and Sato's lead stain, and examined with a transmission electron microscope (CM 10; Phillips, Eindhoven, The Netherlands).

Data set [4] relates to ciliary body. The data set is described as follows: Histology (light and electron microscopy) of ciliary body after PDT in DBA/2J mice. The conditions noted are these: 1.0 mg/kg. Here is the method: as §2
The next data set concerns retinal ganglion cells. As to the kind of experiment: Retinal ganglion cell (RGC) count in DBA/2J mice, fluorochrome retrograde labeling. The text has this: Four weeks after the end of IOP follow up, RGC was counted in DBA/2J mice (11 months old) as described previously (Levkovitch-Verbin et al. (2000) INVEST. OPHTHALMOL. VIS. SCI. 41:4169-74, Danias et al. (2003) INVEST. OPHTHALMOL. VIS. SCI. 44:5151-62) with slight modification (n=4). After the mice were anesthetized, the skin over the cranium was incised, and the scalp was exposed. Holes approximately 2 mm in diameter were drilled in the skull 4 mm posterior to the bregma, 1 mm lateral to the midline on both sides of the midline raphe. The neurotracer dye fluorochrome (Fluoro-gold, Englewood, Colo.) (4% solution in saline) was directly applied (1 μL, at a rate of 0.5 μL/min) at a depth of 2 mm from the brain surface using a Hamilton syringe (Hamilton, Reno, Nev.). Skull openings then were sealed with antibiotic ointment. The overlying skin was sutured and antibiotic ointment applied externally.
Seven days after the application of fluorochrome, the eyes were enucleated. […] Cell counting was performed as previously described (Nakazawa et al. (2002) INVEST. OPHTHALMOL. VIS. SCI. 43:3319-26) under a fluorescence microscope (Leica Microsystems, Wetzlar, Germany) using a UV filter set. RGC densities were determined by counting the tracer-labeled RGCs in 12 distinct areas of 9.0×10^−2 mm^2 each (three areas per retinal quadrant at 1/6, 3/6 and 5/6 of the retinal radius). […]

Regarding verteporfin, the “TUNEL positive (apoptotic) cells” value in the data set on ciliary body [1] was “Many TUNEL positive cells were seen in the ciliary process in both the treated and untreated sides of the treated eye”; in the data set on ciliary body [2] it was “some TUNEL positive cells in the ciliary body and retina of the PDT treated eyes”. Further, the ocular complications result in the data set with DBA/2J mice (2 mg/kg, irradiated in 360 degrees of the corneoscleral limbus (preliminary)) is “severe damage such as corneal edema, hyphema, and corneal neovascularization occurred with high frequency”; in the data set on DBA/2J mice (after change of parameters (1.0 mg/kg, 180 degrees)), “these complications were not seen”. Further, the “lectin staining of ciliary body vessels on the treated side” value in the data set on ciliary body [2] is on record as “showed little staining with lectin”. For the same substance, the “ciliary body histological findings” value is “ciliary body vessels had recanalized” with ciliary body [3] (2.0 mg/kg and 4.0 mg/kg, 7 days after PDT); “Most ciliary body blood vessels in treated eyes appeared thrombosed and all capillaries were damaged” in the data set on ciliary body [3] (2.0 mg/kg, 1 day after PDT); “vascular injury, thrombosis with vacuolization of endothelial cells, extravasculum of leukocyte and erythrocytes and severe edema” in the data set on ciliary body [3] (4.0 mg/kg, 1 day after PDT); “ciliary body blood vessels were recanalized, and edema had disappeared” in the data set on ciliary body [4] (8 weeks after PDT); “most ciliary body blood vessels in the treated eyes were thrombosed” with ciliary body [4] (6 hours after PDT); “most ciliary body blood vessels were still thrombosed, and the ciliary epithelium and stroma were severely damaged and edematous” with ciliary body [4] (1 day after PDT). In addition, the “ciliary body histological findings” value in the data set on ciliary body [4] (7 days after PDT) is reported as “Some of ciliary body blood vessels were still thrombosed”. Moreover, the “number of retinal ganglion cells in the treated eyes” value in the data set with retinal ganglion cells (1.0 mg/kg PDT at 8 months, counted at 11 months of age) is recorded as 3905±627 /mm^2. Besides, the “retinal ganglion cell survival, treated versus control eyes” value in the data set on retinal ganglion cells (1.0 mg/kg PDT, 3 month period, p<0.05) is “significantly higher than control eyes; also recorded: loss of retinal ganglion cells over the 3 month period was significantly reduced”.

The values above are taken from patent US10272261B2, “Methods and compositions for treating ocular glaucoma” (Massachusetts Eye and Ear Infirmary, priority 2004, dated 2019).
